ChEMBL document CHEMBL3608235, “Pyrroloaryls and pyrroloheteroaryls: Inhibitors of the HIV fusion/attachment, reverse transcriptase and integrase” (Bioorg Med Chem, 2015)
≈ marks a conversion by molar mass, not a printed value. One block for each molecule: values may come before it.

Experiments:
[1] = system: Human immunodeficiency virus 1; test: Antiviral activity against HIV1 infected in human MT4 cells; assay type: functional, organism-based; conditions: Human immunodeficiency virus 1, MT4
[2] = system: Human immunodeficiency virus 1; test: Antiviral activity against HIV1 3B infected in human MT2 cells assessed as reduction in virus-induced cell death; assay type: functional; conditions: Human immunodeficiency virus 1, 3B
[3] = Inhibition of HIV1 LTR-mediated transcription assessed as drug level causing 50% inhibition of protein/RNA complex formation incubated for 15 mins; parameters: species or system Human immunodeficiency virus
[4] = system: Human immunodeficiency virus; test: Antiviral activity against HIV; assay type: functional, organism-based; conditions: Human immunodeficiency virus 1
[5] = system: Human immunodeficiency virus 1; test: Antiviral activity against HIV1 SF2; assay type: functional, organism-based; conditions: Human immunodeficiency virus 1, SF2
[6] = Toxicity against human U87-T4-CXCR4 cells; assay type: cell-based, U-87MG ATCC
[7] = Toxicity against human MT2 cells; assay type: cell-based
[8] = Toxicity against human CEMx174 5.25M7 cells; assay type: cell-based
[9] = Toxicity against human U373-MAGI-CXCR4-CEM cells; assay type: cell-based
[10] = system: Human immunodeficiency virus 1; test: Antiviral activity against HIV1 3B; assay type: functional, organism-based; conditions: Human immunodeficiency virus 1, 3B
[11] = system: Human immunodeficiency virus 1; test: Antiviral activity against HIV1 RF; assay type: functional, organism-based; conditions: Human immunodeficiency virus 1, RF
[12] = system: Human immunodeficiency virus 1; test: Antiviral activity against HIV1 3B assessed as inhibition of virus mediated cell fusion between MT2 cells and H9/HIV1 3B cells; assay type: functional, organism-based; conditions: Human immunodeficiency virus 1, 3B
[13] = system: Human immunodeficiency virus 1; test: Antiviral activity against HIV1 SF162 assessed as inhibition of virus mediated cell fusion between CEMx174 5.25M7 cells and PBMC/HIV1 SF162 cells; assay type: functional, organism-based; conditions: Human immunodeficiency virus 1, SF162, CEMx174 5.25M7
[14] = system: Human immunodeficiency virus 1; test: Antiviral activity against HIV1 93TH051 assessed as inhibition of virus mediated cell fusion between CEMx174 5.25M7 cells and PBMC/HIV1 93TH051 cells; assay type: functional, organism-based; conditions: Human immunodeficiency virus 1, 93TH051, CEMx174 5.25M7
[15] = system: Human immunodeficiency virus 1; test: Antiviral activity against HIV1 93BR020 assessed as inhibition of virus mediated cell fusion between CEMx174 5.25M7 cells and PBMC/HIV1 93BR020 cells; assay type: functional, organism-based; conditions: Human immunodeficiency virus 1, 93BR020, CEMx174 5.25M7
[16] = system: Human immunodeficiency virus 1; test: Antiviral activity against HIV1 BCF02 assessed as inhibition of virus mediated cell fusion between CEMx174 5.25M7 cells and […] cells; assay type: functional, organism-based; conditions: Human immunodeficiency virus 1, BCF02, CEMx174 5.25M7
[17] = system: Human immunodeficiency virus 1; test: Antiviral activity against HIV1 92UG029 assessed as inhibition of virus mediated cell fusion between CEMx174 5.25M7 cells and […] cells; assay type: functional, organism-based; conditions: Human immunodeficiency virus 1, 92UG029, CEMx174 5.25M7
[18] = system: Human immunodeficiency virus; test: Antiviral activity against HIV infected in human MT4 cells assessed as reduction in virus-induced cytopathogenicity; assay type: functional, organism-based; conditions: Human immunodeficiency virus 1, MT4
[19] = system: Human immunodeficiency virus 1; test: Antiviral activity against HIV1; assay type: functional, organism-based
[20] = system: Human immunodeficiency virus; test: Antiviral activity against HIV expressing raltegravir-resistant integrase mutants; assay type: functional, organism-based; conditions: Human immunodeficiency virus 1
[21] = system: Human immunodeficiency virus 1; test: Antiviral activity against HIV1 by single-cycle antiviral assay; assay type: functional, organism-based
[22] = system: Human immunodeficiency virus 1; test: Antiviral activity against HIV1 by multi-cycle antiviral assay; assay type: functional, organism-based
[23] = system: Human immunodeficiency virus 2; test: Antiviral activity against HIV2 ROD; assay type: functional, organism-based; conditions: Human immunodeficiency virus 2, ISOLATE ROD
[24] = system: Human immunodeficiency virus 1; test: Antiviral activity against HIV1 infected in human C8166 cells assessed as inhibition of virus replication; assay type: functional, organism-based; conditions: Human immunodeficiency virus 1, C8166
[25] = Cytotoxicity against human C8166 cells; assay type: cell-based; conditions: human, C8166 cells
[26] = system: Human immunodeficiency virus; test: Antiviral activity against HIV by syncytial plaque assay; assay type: functional, organism-based; conditions: Human immunodeficiency virus 1
[27] = system: Human immunodeficiency virus 1; test: Antiviral activity against HIV1 by XTT assay; assay type: functional, organism-based
[28] = system: Human immunodeficiency virus 2; test: Antiviral activity against HIV2 by XTT assay; assay type: functional, organism-based
[29] = molecular target: Human immunodeficiency virus type 1 reverse transcriptase (Human immunodeficiency virus 1) (UniProt Q72547); test: Inhibition of HIV1 reverse transcriptase at 330 uM
[30] = system: Human immunodeficiency virus 2; test: Antiviral activity against HIV2 LAI; assay type: functional, organism-based; conditions: Human immunodeficiency virus 2, LAI
[31] = system: Human immunodeficiency virus 1; test: Antiviral activity against HIV1 NL4-3; assay type: functional, organism-based; conditions: Human immunodeficiency virus 1, NL4-3
[32] = system: Human immunodeficiency virus 1; test: Antiviral activity against HIV1 BAL; assay type: functional, organism-based; conditions: Human immunodeficiency virus 1, BAL
[33] = system: Human immunodeficiency virus 1; test: Antiviral activity against HIV1 SF162; assay type: functional, organism-based; conditions: Human immunodeficiency virus 1, SF162
[34] = system: Human immunodeficiency virus 1; test: Antiviral activity against HIV1 JRFL; assay type: functional, organism-based; conditions: Human immunodeficiency virus 1, JRFL
[35] = system: Human immunodeficiency virus 1; test: Antiviral activity against HIV1 TLAV; assay type: functional, organism-based; conditions: Human immunodeficiency virus 1, TLAV
[36] = system: Human immunodeficiency virus; test: Antiviral activity against HIV by XTT assay; assay type: functional, organism-based; conditions: Human immunodeficiency virus 1
[37] = system: KB; test: Cytotoxicity against human KB cells; assay type: cell-based
[38] = Cytotoxicity against human MT2 cells; assay type: cell-based; conditions: read-out: TC50 (the source's name)

EC50 [1]: 100 µM
Structure (SMILES): CCOC(=O)c1cc2c3ccccc3c3ccccc3n2c1C

Structure (SMILES): CN1C(=O)[C@H](Cc2ccc(O)cc2)n2cccc2-c2ccccc21
IC90 [2]: > 0.29 µg/mL

Structure (SMILES): COc1cc2c(cc1OCCC(=O)Nc1cc(C(=O)Nc3cc(C(=O)Nc4cc(C(=O)Nc5cc(C(=O)NCCC(=N)N)n(C)c5)n(C)c4)n(C)c3)n(C)c1)N=C[C@@H]1CCCN1C2=O
AC50 [3]: 10 µM

IC50 [4]: 20 µM
Structure (SMILES): CSc1c(C#N)c2c(N)ncnc2n1COC(CO)CO

EC50 [5]: 1.86 µM | EC50 [10]: 1.04 µM | EC50 [11]: 1.69 µM | EC50 [12]: 6.74 µM | EC50 [13]: 20.6 µM | EC50 [14]: 7.46 µM | EC50 [15]: 7.04 µM | EC50 [16]: 3.94 µM | EC50 [17]: 10.6 µM
Structure (SMILES): Cc1ccc(C)n1-c1ccc(C(=O)O)c(O)c1
CC50 [6]: > 4000 µM | CC50 [7]: 2760 µM | CC50 [8]: 2490 µM | CC50 [9]: 1860 µM

EC50 [18]: > 27 µg/mL
Structure (SMILES): COc1ccc(Nc2nc3cc(C(F)(F)F)ccc3n3cccc23)cc1OC

EC50 [5]: 4.75 µM | EC50 [10]: 2.21 µM | EC50 [11]: 3.58 µM | EC50 [12]: 29.9 µM | EC50 [13]: 93.1 µM | EC50 [14]: 57.3 µM | EC50 [15]: 10.1 µM | EC50 [16]: 46.4 µM | EC50 [17]: 29 µM
Structure (SMILES): O=C(O)c1cc(-n2cccc2)ccc1Cl
CC50 [6]: > 4000 µM | CC50 [7]: > 4000 µM | CC50 [8]: > 4000 µM | CC50 [9]: > 4000 µM

EC50 [18]: > 16 µg/mL
Structure (SMILES): COc1ccc(OCc2nc3ccccc3n3cccc23)cc1

EC50 [19]: 0.0017 µM
Structure (SMILES): C[C@@H]1CN(C(=O)c2ccccc2)CCN1C(=O)C(=O)c1c[nH]c2ncccc12

Structure (SMILES): CC1=C2C(=O)N(Cc3ccc(F)c(Cl)c3)C(=O)C2=C(O)C(=O)C1c1ccccc1 (stereo not given)
IC50 [20]: 6.4 µM

EC50 [18]: > 15 µg/mL
Structure (SMILES): O=C(O)c1ccc(Nc2nc3cc(C(F)(F)F)ccc3n3cccc23)cc1

Structure (SMILES): CC1=C2C(=O)N(Cc3ccc(F)c(Cl)c3)C(=O)C2=C(O)C(=O)C1C (stereo not given)
IC50 [20]: 6.7 µM

EC50 [21]: 1.8 µM | EC50 [22]: 1.4 µM
Structure (SMILES): O=C1NC(c2ccc(O)cc2)c2c(-c3ccccc3)n[nH]c21 (stereo not given)

EC50 [10]: 5.6 µM | EC50 [23]: > 150 µM
Structure (SMILES): N#Cc1ccccc1CN1C(=O)N(Cc2cccc(F)c2)S(=O)(=O)n2cccc21

EC50 [24]: 2.34 µM
Structure (SMILES): CCOC(=O)c1ncc(O)c2c1C(=O)N(CCc1ccc(C)cc1)C2=O
CC50 [25]: 15.5 µM

EC50 [10]: 7.2 µM | EC50 [23]: > 150 µM
Structure (SMILES): O=C1N(Cc2ccccc2Cl)c2cccn2S(=O)(=O)N1Cc1cccc(F)c1

EC50 [10]: 18 µM | EC50 [23]: > 150 µM
Structure (SMILES): O=C1N(Cc2ccccc2Cl)c2cccn2S(=O)(=O)N1Cc1cccc(Br)c1

IC50 [26]: 0.01 µM
Structure (SMILES): CN1N=C(N)c2cn([C@@H]3O[C@H](COP(=O)(O)O)[C@@H](O)[C@H]3O)c3ncnc1c23 [TRICIRIBINE PHOSPHATE]
IC50 [27]: 0.02 µM | IC50 [28]: 0.02 µM

Structure (SMILES): O=C1c2cnncc2C2(c3ccccc3)NCCN12 (stereo not given)
inhibition [29]: 36%

EC50 [30]: 0.85 µM | EC50 [5]: 0.85 µM | EC50 [31]: 0.85 µM | EC50 [32]: 0.85 µM | EC50 [33]: 0.85 µM | EC50 [34]: 0.85 µM | EC50 [35]: 0.85 µM
Structure (SMILES): O=C(C(=O)N1CCN(C(=O)c2ccccc2)CC1)c1c[nH]c2ccccc12

EC50 [19]: 0.0016 µM
Structure (SMILES): C[C@@H]1CN(C(=O)c2ccccc2)CCN1C(=O)C(=O)c1c[nH]c2cccnc12

Structure (SMILES): CN1N=C(N)c2cn([C@@H]3O[C@H](CO)[C@@H](O)[C@H]3O)c3nc(-c4ccccc4)nc1c23
IC50 [36]: 3 µM | EC50 [37]: > 100 µM

Structure (SMILES): O=Cc1ccc2n1[C@@H](Cc1ccccc1)C(=O)Nc1ccccc1-2
IC90 [2]: > 0.29 µg/mL

Structure (SMILES): CC(=O)OCC1=C2C(=O)N(Cc3ccc(F)c(Cl)c3)C(=O)C2=C(O)C(=O)C1
IC50 [20]: 12.3 µM

Structure (SMILES): COc1cc2c(cc1OCCC(=O)Nc1cc(C(=O)Nc3cc(C(=O)Nc4cc(C(=O)NCCC(=N)N)n(C)c4)n(C)c3)n(C)c1)N=C[C@@H]1CCCN1C2=O
AC50 [3]: 15 µM

EC50 [24]: 3.1 µM
Structure (SMILES): CCOC(=O)c1ncc(O)c2c1C(=O)N(CC(c1ccccc1)c1ccccc1)C2=O
CC50 [25]: 25.2 µM

Structure (SMILES): O=C1c2ccccc2C(=O)N1CCCCCN1C(=O)[C@H](Cc2ccc(O)cc2)n2cccc2-c2ccccc21
IC90 [2]: 2.6 µg/mL (≈ 5 µM) | CC50 [38]: > 50 µg/mL

Structure (SMILES): COC(=O)CCC1=C2C(=O)N(Cc3ccc(F)c(Cl)c3)C(=O)C2=C(O)C(=O)C1C(C)C (stereo not given)
IC50 [20]: 7.1 µM

EC50 [24]: 5.7 µM
Structure (SMILES): O=C(NCc1ccc(F)cc1)c1ncc(O)c2c1C(=O)N(CCc1ccc(F)cc1)C2=O
CC50 [25]: 30.8 µM
